Measured values: PubChem BioAssay (NCI)
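Briefly, cells in 96-well plates were exposed to five compound concentrations for 48 h, and endpoints were estimated by linear interpolation. At the TGI there is no net growth.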

How the values were obtained:
Assay in all cases: inhibition of tumour cell growth, NCI panel, 48 h
NCI-H522 lung = system: NCI-H522 lung
U251 CNS = system: U251 CNS
HCT-15 colon = system: HCT-15 colon
786-0 renal = system: 786-0 renal
A549 NSCLC = system: A549 NSCLC
SK-MEL-2 melanoma = system: SK-MEL-2 melanoma
OVCAR-8 ovarian = system: OVCAR-8 ovarian
M14 melanoma = system: M14 melanoma
LOX IMVI melanoma = system: LOX IMVI melanoma
SW-620 colon = system: SW-620 colon
SK-MEL-28 melanoma = system: SK-MEL-28 melanoma
SK-MEL-5 melanoma = system: SK-MEL-5 melanoma
MDA-MB-231 breast = system: MDA-MB-231 breast
RPMI-8226 leukemia = system: RPMI-8226 leukemia
OVCAR-5 ovarian = system: OVCAR-5 ovarian
SNB-75 CNS = system: SNB-75 CNS
UACC-62 melanoma = system: UACC-62 melanoma
MDA-MB-435 = system: MDA-MB-435
T-47D breast = system: T-47D breast
UACC-257 melanoma = system: UACC-257 melanoma
OVCAR-3 ovarian = system: OVCAR-3 ovarian
SF-268 CNS = system: SF-268 CNS
TK-10 renal = system: TK-10 renal
ACHN renal = system: ACHN renal
BT-549 breast = system: BT-549 breast
NCI-H226 lung = system: NCI-H226 lung
MALME-3M melanoma = system: MALME-3M melanoma
OVCAR-4 ovarian = system: OVCAR-4 ovarian
RXF 393 renal = system: RXF 393 renal
SF-295 CNS = system: SF-295 CNS
COLO 205 colon = system: COLO 205 colon
SR leukemia = system: SR leukemia
EKVX NSCLC = system: EKVX NSCLC
NCI-H23 lung = system: NCI-H23 lung
SNB-19 CNS = system: SNB-19 CNS
SN12C renal = system: SN12C renal
HOP-62 NSCLC = system: HOP-62 NSCLC
K-562 leukemia = system: K-562 leukemia
PC-3 prostate = system: PC-3 prostate
MCF7 breast = system: MCF7 breast
HS 578T breast = system: HS 578T breast
SK-OV-3 ovarian = system: SK-OV-3 ovarian
NCI/ADR-RES ovarian = system: NCI/ADR-RES ovarian
MOLT-4 leukemia = system: MOLT-4 leukemia
UO-31 renal = system: UO-31 renal
NCI-H460 lung = system: NCI-H460 lung
HOP-92 NSCLC = system: HOP-92 NSCLC
IGROV1 ovarian = system: IGROV1 ovarian
HT29 colon = system: HT29 colon
DU-145 prostate = system: DU-145 prostate
HCT-116 colon = system: HCT-116 colon

Measured: TGI

CC(C)(C)OC(=O)N(CCNS(=O)(=O)c1cccc2cnccc12)CCC(=O)ON1C(=O)CCC1=O
> 100 µM: all assays above
